Data from patent publication US10620112B2, “Measuring HIV reservoirs with optical scanning” (SRI INTERNATIONAL, priority 2015, dated 2020).

Tested on: NL4-3 infected resting CD4+ T cells
Assay: Intracellular HIV Gag staining (flow cytometry) of resting CD4+ T cells directly infected with NL4-3, day 3 post-infection
Format: cell-based
Conditions: resting CD4+ T cells infected with NL4-3 by spinoculation, cultured in the presence of the compound, three days postinfection
Procedure: Quiescent CD4+ T cells in the G0/1a stage of the life cycle were enriched by depletion of lineage and activation markers (39, 40). Cells were infected with NL4-3 by spinoculation (32) and cultured in the absence of activating cytokines and in the presence of the protease inhibitor saquinavir (17, 39). dNs were added to infected cultures to overcome SAMHD1− mediated restriction that has been described in resting T cells (33, 41, 42). Three days postinfection cells were stained with LIVE/DEAD aqua and stained for surface markers with antibodies against CD3 (AF700), CD4 (PECy5.5), and CD25/CD69/HLA-DR (APC). Cells were then fixed, permeabilized and stained for HIV Gag. […] Consistent with our previous work, the cultured Gag+ cells lacked the activation markers CD25, CD69 and HLA-DR at day 3. […] The level of integrated HIV DNA was determined to be 0.32 copies per cell in the bulk culture (termed whole culture, WC). Gag+CD4− cells contained 1.2 HIV proviruses per cell, which represented an enrichment of integrated HIV DNA in Gag+CD4− cells compared to Gag− cell populations (Gag−CD4− cells contained 0.013 copies, Gag−CD4int cells contained 0.11 copies, and Gag− CD4+ cells contained 0.24 copies of integrated HIV DNA per cell).

Question: Which “Gag staining of infected cells” value does the source give for `Cc1nnc(C(=O)NC(C)(C)c2nc(C(=O)NCc3ccc(F)cc3)c(O)c(=O)n2C)o1` [raltegravir] here?
Answer: very low Gag staining
